By IC50 is commonly meant the point on the concentration scale where inhibition reaches its midpoint. The term IC90 denotes the concentration needed for an effect of 90%.

The values below come from patent US20250136594A1 (Tango Therapeutics, Inc., priority 2022, published 2025).

Each structure is given as a SMILES string.

Test [1] has as its system SDMA in HAP1 MTAP-deleted (MTAP-null) cell line (PRMT5 inhibition). As to the kind of experiment: SDMA in-cell western assay, HAP1 MTAP-deleted cell line. The conditions noted are these: for IC50 / IC90: Homo sapiens; for IC50: HAP1, read-out: Hap1 MTAP deleted IC50; for IC90: HAP1, read-out: Hap1 MTAP deleted IC90; for Hap1 MTAP intact/deleted ratio: ratio of SDMA IC50 in HAP1 MTAP-intact to HAP1 MTAP-deleted cell line.

Test [2] relates to SDMA in HAP1 MTAP-intact cell line (PRMT5 inhibition). The test can be described thus: SDMA in-cell western assay, HAP1 MTAP-intact cell line. To be noted: Homo sapiens, HAP1, read-out: Hap1 MTAP intact IC50.
The test system of test [3] is HAP1 MTAP-deleted cell line. The test can be described thus: Viability assay, HAP1 MTAP-deleted cell line. To be noted: Homo sapiens; viability assay, HAP1 MTAP-deleted cell line; read-out: Hap1 MTAP deleted viability IC50. It counts as cell-based.

As to `CCN(C(=O)C(=O)Nc1cnc(N)c2cn[nH]c12)[C@@H](C)c1ccc(C(F)(F)C(F)(F)F)cc1C` [Compound 69, (S)—N^1-(4-amino-1H-pyrazolo[4,3-c]pyridin-7-yl)-N^2-ethyl-N^2-(1-(2-methyl-4-(perfluoroethyl)phenyl)ethyl)oxalamide], in test [1], the IC50 was 5 to 50 nM, the IC90 was under 75 nM and the “Hap1 MTAP intact/deleted ratio” value is “B (IC50 ratio greater than or equal to 15 fold but lower than 30 fold)”. For the same molecule, in test [2], the half-maximal inhibitory concentration (IC50) was over 50 nM. For the same molecule, the 50% inhibitory concentration (IC50) in test [3] was under 100 nM.
In the case of `CCN(C(=O)C(=O)Nc1cnc(N)c2cn[nH]c12)[C@H](C)c1ccc(C(F)(F)F)cc1C` [Compound 70, (R)—N^1-(4-amino-1H-pyrazolo[4,3-c]pyridin-7-yl)-N^2-ethyl-N^2-(1-(2-methyl-4-(trifluoromethyl)phenyl)ethyl)oxalamide], the IC50 is under 5 nM in test [1], 5 to 50 nM in test [2] and under 100 nM in test [3]. Further, in test [1], the IC90 is under 75 nM. Moreover, in test [1], the “Hap1 MTAP intact/deleted ratio” value is on record as “C (IC50 ratio of less than 15 fold)”.
The like results for `Cc1cc(F)ccc1CN(CC(C)C)C(=O)C(=O)Nc1cnc(N)c2cn[nH]c12` [Compound 71, N-(4-amino-1H-pyrazolo[4,3-c]pyridin-7-yl)-N′-[(4-fluoro-2-methyl-phenyl)methyl]-N′-isobutyl-oxamide] were, in that order, under 5 nM, over 50 nM, under 100 nM, under 75 nM and “A (IC50 ratio greater than or equal to 30 fold)”.
For the molecule `CCN(Cc1ccc(C(F)(F)F)cc1F)C(=O)C(=O)Nc1cnc(N)c2cn[nH]c12` [Compound 72, N-(4-amino-2H-pyrazolo[4,3-c]pyridin-7-yl)-N′-ethyl-N′-[[2-fluoro-4-(trifluoromethyl)phenyl]methyl]oxamide], in test [1], the IC50 was under 5 nM, the concentration for an effect of 90% (IC90) was under 75 nM and the “Hap1 MTAP intact/deleted ratio” value was “A (IC50 ratio greater than or equal to 30 fold)”. In addition, the IC50 in test [2] was 5 to 50 nM. Also, in test [3], the IC50 is under 100 nM.
The like results for `CC(C)N(Cc1ccccc1C(F)(F)F)C(=O)C(=O)Nc1cnc(N)c2cn[nH]c12` [Compound 73, N-(4-amino-1H-pyrazolo[4,3-c]pyridin-7-yl)-N′-isopropyl-N′-[[2-(trifluoromethyl)phenyl]methyl]oxamide] were, in that order, under 5 nM, under 75 nM, “B (IC50 ratio greater than or equal to 15 fold but lower than 30 fold)”, 5 to 50 nM and under 100 nM.
The like results for `CC[C@@H](C)CN(Cc1ccc(C(F)(F)F)cn1)C(=O)C(=O)Nc1cnc(N)c2cn[nH]c12` [Compound 75, (R)—N^1-(4-amino-1H-pyrazolo[4,3-c]pyridin-7-yl)-N^2-(2-methylbutyl)-N^2-((5-(trifluoromethyl)pyridin-2-yl)methyl)oxalamide] were, in that order, under 5 nM, under 75 nM, “C (IC50 ratio of less than 15 fold)”, 5 to 50 nM and under 100 nM.
The like results for `Cc1ccccc1CN(Cc1ccc(C(F)(F)F)cn1)C(=O)C(=O)Nc1cnc(N)c2cn[nH]c12` [Compound 76, N-(4-amino-1H-pyrazolo[4,3-c]pyridin-7-yl)-N′-(o-tolylmethyl)-N′-[[5-(trifluoromethyl)-2-pyridyl]methyl]oxamide] were, in that order, under 5 nM, under 75 nM, “C (IC50 ratio of less than 15 fold)”, 5 to 50 nM and under 100 nM.
With `Nc1ncc(NC(=O)C(=O)N(Cc2ccccn2)Cc2ccc(F)cc2Cl)c2[nH]ncc12` [Compound 77, N-(4-amino-1H-pyrazolo[4,3-c]pyridin-7-yl)-N′-[(2-chloro-4-fluoro-phenyl)methyl]-N′-(2-pyridylmethyl)oxamide], in test [1], the IC50 is under 5 nM, the concentration for an effect of 90% (IC90) is under 75 nM and the “Hap1 MTAP intact/deleted ratio” value is “B (IC50 ratio greater than or equal to 15 fold but lower than 30 fold)”. The IC50 in test [2] lay within 5 to 50 nM. For the same molecule, the half-maximal inhibitory concentration (IC50) in test [3] is under 100 nM.
The like results for `C[C@@H](c1ccc(C(F)(F)F)cc1)N(C)C(=O)C(=O)Nc1cnc(N)c2c1cnn2C` [Compound 79, N-(7-Amino-1-methyl-pyrazolo[3,4-c]pyridin-4-yl)-N′-methyl-N′—[(1S)-1-[4-(trifluoromethyl)phenyl]ethyl]oxamide] were, in that order, 5 to 50 nM, over 125 nM, “A (IC50 ratio greater than or equal to 30 fold)”, over 50 nM and 100 to 1000 nM.
Turning to `C[C@H](c1ccc(C(F)(F)C(F)(F)F)cc1)N(C)C(=O)C(=O)Nc1cnc(N)c2c1cnn2C` [Compound 81, N-(7-Amino-1-methyl-pyrazolo[3,4-c]pyridin-4-yl)-N′-methyl-N′—[(1R)-1-[4-(1,1,2,2,2-pentafluoroethyl)phenyl]ethyl]oxamide], the values for the IC50 in test [1], in test [2] and in test [3] were under 5 nM, 5 to 50 nM and under 100 nM, respectively. For the same molecule, in test [1], the 90% effect concentration (IC90) was under 75 nM. Also, the “Hap1 MTAP intact/deleted ratio” value in test [1] is reported as “A (IC50 ratio greater than or equal to 30 fold)”.
The like results for `C[C@@H](c1ccc(C(F)(F)F)cc1F)N(C)C(=O)C(=O)Nc1cnc(N)c2c1cnn2C` [Compound 82, N-(7-Amino-1-methyl-pyrazolo[3,4-c]pyridin-4-yl)-N′-methyl-N′—[(1S)-1-[2-fluoro-4-(trifluoromethyl)phenyl]ethyl]oxamide] were, in that order, 5 to 50 nM, over 50 nM, 100 to 1000 nM, over 125 nM and “B (IC50 ratio greater than or equal to 15 fold but lower than 30 fold)”.
The like results for `C[C@@H](c1ccc(C(F)(F)C(F)(F)F)cc1)N(C)C(=O)C(=O)Nc1cnc(N)c2c1cnn2C` [Compound 83, N-(7-Amino-1-methyl-pyrazolo[3,4-c]pyridin-4-yl)-N′-methyl-N′—[(1S)-1-[4-(1,1,2,2,2-pentafluoroethyl)phenyl]ethyl]oxamide] were, in that order, 5 to 50 nM, over 50 nM, 100 to 1000 nM, over 125 nM and “A (IC50 ratio greater than or equal to 30 fold)”.
In the case of `C[C@H](c1ccc(C(F)(F)F)cc1F)N(C)C(=O)C(=O)Nc1cnc(N)c2c1cnn2C` [Compound 84, N-(7-Amino-1-methyl-pyrazolo[3,4-c]pyridin-4-yl)-N′-methyl-N′—[(1R)-1-[2-fluoro-4-(trifluoromethyl)phenyl]ethyl]oxamide], in test [1], the IC50 is under 5 nM, the IC90 is under 75 nM and the “Hap1 MTAP intact/deleted ratio” value is given as “A (IC50 ratio greater than or equal to 30 fold)”. In addition, in test [2], the half-inhibitory concentration (IC50) is 5 to 50 nM. In addition, the 50% inhibitory concentration (IC50) in test [3] is under 100 nM.
With `Cc1cc(C(F)(F)F)cnc1CN(Cc1ncccn1)C(=O)C(=O)Nc1cnc(N)c2cn[nH]c12` [Compound 86, N-(4-amino-1H-pyrazolo[4,3-c]pyridin-7-yl)-N′-[[3-methyl-5-(trifluoromethyl)-2-pyridyl]methyl]-N′-(pyrimidin-2-ylmethyl)oxamide], in test [1], the IC50 was under 5 nM, the IC90 is under 75 nM and the “Hap1 MTAP intact/deleted ratio” value is reported as “C (IC50 ratio of less than 15 fold)”. Moreover, the IC50 in test [2] lay in the range of 5 to 50 nM. Further, in test [3], the half-inhibitory concentration (IC50) is under 100 nM.
